# Experimental data: patent US8071548B2, “Method of reducing injury to mammalian cells” (Nono, Inc., priority 2002, dated 2011)
# Experiments:
# reactive oxygen species = experiment: ROS production (DHR fluorescence); format: cell-based, mouse
# Method: The production of reactive oxygen species (ROS) was measured with DHR. In brief, DHR is oxidized to a fluorescent rhodamine-123 (Royall and Ischiropoulos, 1993), and the consequent rise in fluorescence may be used as an indicator of ROS production.
# ROS were measured as previously described (Tymianski et al., 1998; Aarts et al., 2003). In brief, cultures were pre-loaded for 30 min with 5 μM DHR and subjected to the experimental insult. DHR fluorescence was measured in a multiwell plate fluorescence scanner (Cytofluor II, PerSeptive Biosytems, Framingham, Mass., USA; 485 nm excitation, 530 emission). DHR fluorescence was normalized to baseline using the formula at (Ft−Fo)/F0; Where Ft=DHR fluorescence at time t, Fo=DHR fluorescence at time zero. DHR fluorescence images were also acquired using a microscope (465-495 nm excitation and 515-555 nm emission) as described above for TMRM.
# [1] = system: mitochondrial membrane potential; details: 10 μM; 10 min
# Method: Cultures were preincubated at 37° C. with 10 nM TMRM for 30 min. […] TMRM was maintained in the solution throughout the experiment. TMRM fluorescence was imaged on a Nikon Eclipse TE-2300 microscope using 20× objective (Nikon), a 510-560 nm bandpass excitation and 590 nm emission filter. Images were acquired using a Hamamatsu ORCA-ER digital camera and Simple PCI software (Nikon). Fluorescence from 10-30 cells was averaged and background subtracted for each image.
# [2] = system: cultured cortical neurons
# [3] = system: cortical neuronal cultures; experiment: Sublethal stretch injury with or without NMDA, cell death in cortical cultures; format: cell-based; details: 200 μM
# Method: […]. In brief, cerebral cortices from 10 to 12 embryos were incubated for 10 min in 0.05% trypsin-EDTA, dissociated by trituration, and plated on flexible membranes coated with poly-L-ornithine in 6 well plates (Flexcell International Corporation, Hillsborough, N.C.) at a density of 3.25×10^6 cells per well. Plating medium consisted of DMEM supplemented with 10% heat-inactivated horse serum (Gibco) and (in mM) 2 glutamine, 25 glucose, and 26 bicarbonate. The cultures were maintained at 37° C. in a humidified 5% CO2 atmosphere. After 3 days in vitro, growth of non-neuronal cells was halted by a 48 h exposure to 10 μM FDU-solution (5 μM uridine, 5 μM (+)-5-fluor-2′-deoxyuridine). This produces cultures in which >85% of the cells are neurons, based on immunohistochemical staining for glial fibrillary associated protein (exclusive to astrocytes), and for the NMDAR1 subunit (not shown). The cultures were used for experiments after 12-14 days in vitro.
# The cultures, grown on silastic membranes as above, were placed in the Flexercell® FX-3000™ Strain Unit (Flexcell Int., Inc.), a computer-driven instrument that uses a vacuum pulse to deform the culture substrate. In all experiments, the cortical cultures were stretched to 130% of their original length for 1 s, inducing a sublethal injury as recently characterized by us (Arundine et al., 2003). The stretched neurons maintained cell membrane integrity, viability, and electrophysiological function.
# Cell death was determined by serial quantitative measurements of propidium iodide (PI) fluorescence using a multiwell plate fluorescence scanner (Cytofluor II, PerSeptive Biosytems, Framingham, Mass., USA) as described previously (Sattler et al., 1997; Sattler et al., 1998). In brief, the culture medium in each tissue culture well was replaced with control solution containing 50 μg/ml PI, and a baseline fluorescence reading was taken. Sequential readings were then taken at appropriate intervals over the 20 h observation period. The fraction of dead cells in each culture at a given time was calculated as: Fraction dead=(Ft−Fo)/FNMDA Where Ft=PI fluorescence at time t, F0=initial PI fluorescence at time zero and FNMDA=background subtracted PI fluorescence of identical cultures from the same dissection and plating, 20-24 h after a 60 min exposure to 1 mM NMDA at 37° C. Based on manual observations at the time of validation of this technique, this NMDA exposure routinely produced near complete neuronal death in each culture but had no effect on surrounding glia (also see (Bruno et al., 1994; David et al., 1996; Sattler et al., 1997)). Adding Triton X-100 (0.1%) to cultures treated in this manner produced an additional 10-15% increase in PI fluorescence due to permeabilization of non-neuronal cell membranes, consistent with a 10-15% glial component in the cultures.
# All experiments were performed at 37° C. Unless otherwise indicated, all solutions contained nimodipine (2 μM) and CNQX (10 μM) to restrict the actions of applied NMDA to NMDARs by preventing the secondary activation of other pathways (Sattler et al., 1998). In general, the cultures were washed ×2 with control solution and immediately stretched to 130% of their original length for 1 s. After the stretch, they were washed ×1 with control solution alone or challenged with an additional treatment (e.g., NMDA) and placed at 37° C. for 1 h. They were then washed ×1 with control solution and then with control solution containing 50 μg/ml PI to obtain a baseline reading. In pilot studies, baseline readings obtained at this stage were similar to those obtained by staining the cells with PI prior to stretch. As the stretch causes splashing of the bath solution, staining with PI after stretch reduced biohazard potential and artifacts associated with PI outside the culture well. Unstretched controls were manipulated identically to stretched cultures.
# [4] = system: cortical neuronal cultures; experiment: DNA fragmentation assays (TUNEL, DNA gel electrophoresis); format: cell-based, mouse
# From the text: DNA fragmentation was examined using the terminal deoxynucleotidyl transferase-mediated end nick labeling (TUNEL) method (Gavrieli et al., 1992; Didenko and Hornsby, 1996; Didenko et al., 1998) and by DNA agarose gel electrophoresis (Hill et al., 2000).
# TUNEL Assay: Nuclear DNA strand breaks were detected by enzymatically labeling free 3′-OH termini with modified nucleotides provided in the Apoptag kit (Intergen) using the manufacturer's instructions. Visualization of TUNEL-stained nuclei was achieved using an anti-digoxigenin antibody conjugated to a fluorescein or peroxidase reporter molecule (ApopTag Peroxidase Kits S7110 and S7100, respectively, Intergen). In fluorescence experiments, nuclei were counterstained using 5 ng/ml Hoechst 33258 (1:5000, Transduction Labs), and visualized using 465-495 nm excitation and 515-555 nm emission for fluorescein and 340 nm excitation and 510-40 nm emission for Hoechst. The number of TUNEL positive cells was expressed as a fraction of the total cell number in the field. In each culture, 4-8 random fields were quantified. Approximately 100-200 cells were counted per culture, and at least 3 experiments were performed for each set of counts.
# DNA Gel Electrophoresis: DNA laddering was evaluated as described elsewhere (Hill et al., 2000). In brief, all tissue was collected from each culture well and pelleted by centrifugation (1000 rpm; 1 min). The cells were digested for 2 h at 56° C. in buffer containing (in mM) 10 Tris pH 8.0, 2 EDTA pH8, 400 NaCl, 0.5% SDS, 1 mg/ml proteinase K. Digest solution was subjected to phenol/chloroform extraction and total DNA was precipitated from the aqueous layer with an equal volume of 100% ethanol. The DNA pellet was dried, dissolved in 50 μl ddH20 and kept overnight at 4° C. 10 μg DNA was prepared on a 2% agarose gel. Gels were stained with ethidium bromide and photographed.
# [5] = system: transient middle cerebral artery occlusion; experiment: Transient MCAO, dose study of infarct size; format: in vivo, Sprague-Dawley rats; details: 6 mg/kg 1 h before the stroke
# caspase 3 = experiment: Active caspase 3 immunofluorescence; format: cell-based, mouse; details: positive control
# Method: Cultures were fixed with warm 4% paraformaldehyde and 4% sucrose in PBS for 20 min, permeabilized with 0.1% Triton X-100 for 10 min at 4° C., and blocked with 10% goat serum in PBS for 1 h at RT. Immunofluorescence was visualized with an inverted Nikon microscope using a 40× oil immersion lens. FITC, rhodamine and Hoechst were visualized using 465-495 excitation and 515-555 nm emission, 510-560 nm excitation and 590 nm emission, and 340 nm excitation and 510 nm emission, respectively. Active caspase 3 was labelled by incubating the cultures with a purified rabbit monoclonal anti-active caspase 3 antibody (1:300; BD PharMingen) and a fluorescein-conjugated goat anti-mouse IgG secondary antibody (1:500; Transduction Labs). Nitrotyrosine was labelled by incubating the cultures with a rabbit polyclonal α-nitrotyrosine primary antibody (1:300; Upstate) and a rhodamine-conjugated goat anti-rabbit IgG secondary antibody (1:500; Transduction Labs). AIF was labelled by incubating the cultures with an AIF antibody (1:200; Santa Cruz, (Zhang et al., 2002)) and a rhodamine-conjugated goat anti-mouse IgG secondary antibody (1:500; Transduction Labs). In some experiments, nuclei were counter-stained with Hoechst 33258 (1:5,000, Transduction Labs).
# NMDARs = experiment: Whole cell patch-clamp recordings of NMDA currents in cultured neurons; format: cell-based, mouse; details: intracellular dialysis of 1 mM peptide, 300 μM NMDA
# traumatic brain injury = experiment: Lateral fluid percussion injury model of TBI; format: in vivo, Sprague-Dawley rats; details: analyzed 24 h after injury
# Method: Adult male Sprague-Dawley rats weighing approximately 350 g were ordered from Charles River and anesthesia was induced using a gaseous mixture of 1:2 oxygen:nitrous oxide with 2% halothane. The halothane level was reduced to 1% during surgical manipulations and weights were recorded prior to preparatory surgery. The preparatory surgery for these experiments included the cannulation of the left femoral vein and a 5 mm diameter craniotomy. The venous cannula is sealed and tucked inside the animal whereupon the wound is sutured. The center of the craniotomy lies about 2.5 mm to the right of the sagittal suture, between the bregma and lambda. A modified Leur-loc is attached to the perimeter of the craniotomy with superglue (FIG. 28).
# Dental acrylic (GC America Inc, Alsip, Ill.) is applied around the modified Leur-loc to seal it into place. A small piece of gelfoam is placed into the opening and the skin is sutured over the entire setup. The animal is then returned to its cage. The following day, the animal is re-anesthetized, weighed, and its wound is re-opened. The gelfoam is removed and the animal is attached to the fluid percussion device via the modified Leur-loc. At this time, the animal is given a ˜20 ms saline injection at approximately 2.4 atmospheres (350 mV on the oscilloscope) using the fluid percussion injury device (Custom Design & Fabrication, Richmond, Va.) (FIG. 29).
# On occasion, the animal ceases spontaneous breathing following the injury and 1-2 chest compressions are required for resuscitation. The modified Leur-loc along with the dental acrylic is removed en bloc immediately following the injury. The animal is placed on 100% oxygen while its wound is cleaned and resealed with Vetbond tissue adhesive (3M Worldwide, Maplewood, Minn.). The rat's body temperature during the recovery time is maintained at 37° C. with a homeothermic warming blanket (Harvard Bioscience Inc, Holliston, Mass.). The amount of time necessary for the righting reflex to return is recorded and the animal is placed back into its cage. At 3 h post-injury, the animal is re-anesthetized and weighed again. The wound overlying the femoral cannula is opened and the cannula is cleaned out using heparinized saline. […] The cannula is sealed, tucked again into the animal, and the wound is re-sutured. At 24 h post-injury, the animal is re-anesthetized and weighed again. The rat is transcardially perfused using heparinized saline to clean out the cardiovascular system, followed by a 4% formalin fixative solution. The rat is decapitated and left in the fixative solution overnight. The brain is extracted the following day and processed. The volume of damaged brain (FIG. 26, right graph) is assessed according to the same methods as described in Aarts et al., 2002, for assessing stroke volumes. […]
# [6] = system: cortical neuronal cultures; experiment: Staurosporine-induced cell death in cortical cultures; format: cell-based, mouse; details: 200 μM for 48 h, staurosporine 1 μM
# [7] = 20 h post-insult, 200 μM MnTBAP or 100 μM L-NAME
compound,measurement,setting,value
"N#CC(C#N)=NNc1ccc(OC(F)(F)F)cc1 [FCCP, reference compound]",DHR fluorescence,reactive oxygen species; mitochondrial uncoupler,abolished all DHR fluorescence
same,mitochondrial depolarization (loss of TMRM fluorescence),[1],profound mitochondrial depolarization
"O=C(O)c1ccc(-c2c3nc(c(-c4ccc(C(=O)O)cc4)c4ccc([n-]4)c(-c4ccc(C(=O)O)cc4)c4nc(c(-c5ccc(C(=O)O)cc5)c5ccc2[n-]5)C=C4)C=C3)cc1.[Mn+3] [MnTBAP, manganese(III) tetrakis(4-benzoic acid) porphyrin]",DHR fluorescence (ROS production),reactive oxygen species; 200 μM pretreatment,reduced DHR fluorescence in all culture conditions
same,SNP toxicity,"[2]; SNP 300 μM, 200 μM MnTBAP pretreatment",reduced SNP toxicity to baseline
same,cell death in stretched cells treated with 30 μM NMDA,"[3]; 30 min preincubation, 20 h",completely eliminated cell death
same,DNA laddering after stretch followed by NMDA,[4]; [7],virtually abolished
same,TUNEL staining after stretch followed by NMDA,[4]; [7],virtually abolished
"CC(C(O)c1ccc(O)cc1)N1CCC(Cc2ccccc2)CC1 (centres unmarked) [Ro25-6981, reference compound]",infarct size versus control dose,[5],significant reduction in infarct size
N[C@@H](CSN=O)C(=O)O [S-nitrosocysteine],NO donor toxicity,[2],highly toxic
CN[C@@H]1C[C@H]2O[C@@](C)([C@@H]1OC)n1c3ccccc3c3c4c(c5c6ccccc6n2c5c31)C(=O)NC4 [staurosporine],active caspase 3 staining,caspase 3,stained for active caspase 3
same,DNA laddering by gel electrophoresis,[4]; 1 μM for 48 h,DNA ladders suggestive of intenucleosomal DNA fragmentation
same,TUNEL staining,[4]; 1 μM for 48 h,TUNEL staining was observed
CSKDTMEKSESL,peak NMDA current amplitudes,NMDARs,2540±281 pA
Tat-KLSSIETDV,total volume of injured brain,traumatic brain injury; 3 hours after TBI,significantly reduced
same,fraction of dead cells in cerebral cortex and hippocampus ipsilateral to the injury,traumatic brain injury; via femoral cannula 3 hours after TBI,markedly reduced fraction of dead cells
z-val-ala-asp-fluoromethylketone [z-VAD-FMK],cytotoxicity in stretched cultures with 30 μM NMDA,[3],no significant reduction in cytotoxicity
same,toxicity to unstretched cultures or stretch alone,[3],not toxic
same,attenuation of staurosporine-induced death,[6],significantly reduced
same,attenuation of staurosporine-induced death,[6]; listed as zvadFMK,47%
same,DNA fragmentation of neurons exposed to stretch+NMDA,[4]; DNA gel electrophoresis,did not reduce DNA fragmentation
